Measured values reported in article PMC6151740, “Pharmacokinetics, Tissue Distribution, and Elimination of Three Active Alkaloids in Rats after Oral Administration of the Effective Fraction of Alkaloids from Ramulus Mori, an Innovative Hypoglycemic Agent” (Molecules : A Journal of Synthetic Chemistry and Natural …, 2017).
Where two headings read alike, the source gives them in different places.

Assays:
[1] = Plasma pharmacokinetic study in rats after oral and intravenous administration of SZ–A or purified DNJ; format: in vivo, rat; conditions: for MRT last: read-out: MRT0–t; for MRT inf: read-out: MRT0–∞; for bioavailability: plasma, read-out: F (oral absolute bioavailability)
Description: The oral dosing solutions used for all animal studies were prepared by dissolving in water. Thirty rats weighed 250–270 g after acclimation were randomly divided into six groups of five animals each. For oral administration, rats were treated with SZ–A (40, 200, 1000 mg/kg) or purified DNJ (15 mg/kg) dissolve in water. Blood samples (about 0.25 mL) were collected via the postorbital venous plexus veins under ether anesthesia into heparinized polythene tubes before dosing and at 0.08, 0.17, 0.33, 0.50, 1, 2, 3, 4, 6, 8, 12, 24 and 36 h after drug administration. For intravenous dosing, rats were given SZ–A (4 mg/kg) or DNJ (1.5 mg/kg) dissolved in normal saline solution through the tail vein. Then blood samples were collected at 0.03, 0.08, 0.17, 0.33, 0.67, 1, 2, 4, 6, 8, 12, 24, and 36 h under similar conditions. Considering the physical limit of blood in rats, during the process of the pharmacokinetic experiment, each rat was received 0.25 mL of sterile isotonic saline at each time point after blood sampling for compensation of body fluid loss, and the blood loss was also corrected at a definite degree. Plasma was separated by centrifuging the blood samples at 1660× g for 5 min and stored at −20 °C until LC-MS/MS analysis. Data fitting and pharmacokinetic parameter estimates were carried out using non–compartmental analysis via WinNonlin Software (version 6.1, Pharsight Corporation, Mountain View, CA, USA). F was calculated according to the formula: F (%) = (AUC oral/AUC i.v.) × (dose i.v./dose oral) × 100.
The plasma, feces, urine, and bile samples (100 μL) were added to 1 μL of Tris aqueous solution (2 M), 10 μL of IS working solution (2 μg/mL), and 190 μL methanol–acetonitrile (25:75, v/v). The incubation supernatant samples (300 μL) were mixed with 1 μL Tris aqueous solution (2 M) and 10 μL of IS working solution (2 μg/mL). All mixtures were vortexed for 30 s followed by centrifugation at 18,880× g for 5 min, twice.
Briefly, the LC-MS/MS instrument consisted of a 1260 HPLC system (Agilent, Santa Clara, CA, USA) and API4000 triple quadrupole mass spectrometer (Applied Biosystems Sciex, Toronto, ON, Canada) with an electrospray ionization (ESI) source and Analyst software (version 1.5.2, Applied Biosystems Sciex, Toronto, ON, Canada) for data acquisition and processing. DNJ, FGM, DAB, and IS were separated in a Xbridge amide™ column (3.5 μm, 4.6 mm × 150 mm; Waters, Milford, MA, USA) with a gradient mobile phase of acetonitrile-water (0.1% ammonium hydroxide) at a flow rate of 0.7 mL/min. An ESI source was used in the positive ion mode. The optimized mass spectrometric condition was as follows: ion spray voltage, 5500 V; collision gas, 6 psi; curtain gas, 20 psi; ion source gas 1 (GS1), 45 psi; ion source gas 2 (GS2), 45 psi; temperature, 450 °C. The multiple reaction monitoring (MRM) transitions of DNJ, FGM, DAB, and IS were m/z 164.0→110.1 (declustering potential (DP) 50 V, collision energy (CE) 22 V, collision cell exit potential (CXP) 10 V), 148.0→112.1 (DP 66 V, CE 21 V, CXP 10 V), 134.0→98.0 (DP 60 V, CE 20 V, CXP 10 V) and 208.0→146.1 (DP 50 V, CE 27 V, CXP 10 V), respectively.

[2] = tested on: rat caecal microbiota cultures; assay: In vitro incubation of SZ–A with rat caecal microbiota cultures; format: in vitro ADME; conditions: 2 h
Description: Pooled rat intestinal homogenate from six males was prepared using a tissue homogenizer with ice cold normal saline solution at a proportion of 1:3 (w/v). SZ–A was incubated with rat intestinal homogenate (5 mg protein/mL) with/without a NADPH-generating system (0.011 M β-NADP, 0.1 M glucose 6-phosphate, 10 U/mL glucose-6-phosphate dehydrogenase) in a 37 °C water bath for 120 min. Meanwhile, caecal content was collected and mixed with anaerobic medium (1:30, w/v) to prepare the cultures under nitrogen atmosphere at 37 °C for 120 min. SZ–A and rat caecal microbiota cultures were incubated at a total volume of 200 μL with the boiled samples as the negative control, concomitantly. The incubation was stopped at 2 h by adding two volumes of methanol–acetonitrile (1:3, v/v). Triplicate supernatants were taken by centrifugation at 18,880× g for 5 min and stored at −20 °C until LC-MS/MS analysis. The results were expressed as the percentage of the concentration at 0 min.

[3] = Sprague-Dawley, iv, rat plasma, SZ–A 4 mg/kg i.v., n = 5
[4] = Sprague-Dawley, po, rat plasma, SZ–A 40 mg/kg p.o., n = 5
[5] = Sprague-Dawley, po, rat plasma, SZ–A 200 mg/kg p.o., n = 5
[6] = Sprague-Dawley, po, rat plasma, SZ–A 1000 mg/kg p.o., n = 5
[7] = rat plasma, SZ–A 40 mg/kg p.o., n = 5
[8] = rat plasma, SZ–A 200 mg/kg p.o., n = 5
[9] = rat plasma, SZ–A 1000 mg/kg p.o., n = 5

## OC[C@H]1NCC[C@@H](O)[C@@H]1O [FGM, fagomine]
[1]; [3]
  AUC(0-inf): 284 ± 36.7 ng·h/mL
  AUC(0-t): 278 ± 36.8 ng·h/mL
  Cmax: 1240 ± 304 ng/mL
  Tmax: 0.033 h
  half-life: 0.23 ± 0.03 h
  MRT last: 0.26 ± 0.06 h
  MRT inf: 0.3 ± 0.06 h
[1]; Sprague-Dawley, iv, rat plasma, SZ–A 4 mg/kg i.v., n = 5, read-out: CLz (converted)
  clearance: 15.4 mL/min/kg
[1]; Sprague-Dawley, iv, rat plasma, SZ–A 4 mg/kg i.v., n = 5, read-out: Vd
  Vd: 0.308 ± 0.061 L/kg
[1]; Sprague-Dawley, po, rat, SZ–A 40 mg/kg p.o. vs SZ–A 4 mg/kg i.v.
  bioavailability: 77.5%
[1]; Sprague-Dawley, po, rat, SZ–A 200 mg/kg p.o. vs SZ–A 4 mg/kg i.v.
  bioavailability: 38.5%
[1]; Sprague-Dawley, po, rat, SZ–A 1000 mg/kg p.o. vs SZ–A 4 mg/kg i.v.
  bioavailability: 29.9%
[1]; [4]
  AUC(0-inf): 2170 ± 770 ng·h/mL
  AUC(0-t): 2160 ± 778 ng·h/mL
  Cmax: 1490 ± 756 ng/mL
  Tmax: 0.67 ± 0.29 h
  half-life: 0.93 ± 0.29 h
  MRT last: 1.41 ± 0.27 h
  MRT inf: 1.48 ± 0.34 h
[1]; [5]
  AUC(0-inf): 5400 ± 1470 ng·h/mL
  AUC(0-t): 5360 ± 1490 ng·h/mL
  Cmax: 2250 ± 1060 ng/mL
  Tmax: 0.57 ± 0.09 h
  half-life: 1.44 ± 0.16 h
  MRT last: 2.66 ± 0.52 h
  MRT inf: 2.78 ± 0.54 h
[1]; [6]
  AUC(0-inf): 21800 ng·h/mL
  AUC(0-t): 20800 ng·h/mL
  Cmax: 4390 ± 2360 ng/mL
  Tmax: 1.3 ± 0.67 h
  half-life: 2.73 ± 1.16 h
  MRT last: 5.44 ± 1.77 h
  MRT inf: 6.15 ± 2.11 h
[1]; [7]
  CLz: 21.965 ± 9.748 mL/min/kg
  Vd: 1.894 ± 1.3578 L/kg
[1]; [8]
  CLz: 42.625 ± 13.11 mL/min/kg
  Vd: 5.332 ± 1.8559 L/kg
[1]; [9]
  CLz: 56.43 ± 21.033 mL/min/kg
  Vd: 14,243.4 ± 9987.6 mL/kg
[1]; rat, after oral administration of SZ–A (40, 200, 1000 mg/kg), upper bound over doses
  time to reach maximum plasma concentration (Cmax): ≤ 1.30 h
[2]; 4.35 μg/mL SZ–A (10 μM DNJ, 1.9 μM FGM, 1.6 μM DAB)
  percentage of initial amount after incubation with rat gut microbiota cultures: 152.8%
[2]; 10.87 μg/mL SZ–A (25 μM DNJ, 4.7 μM FGM, 3.9 μM DAB)
  percentage of initial amount after incubation with rat gut microbiota cultures: 172.0%
